Measured values: publication PMC8767159, “Multiparameter Optimization of Trypanocidal Cruzain Inhibitors With In Vivo Activity and Favorable Pharmacokinetics” (Frontiers in Pharmacology, 2022)
Read-outs that look alike come from different tables or passages of the source.

Tests used:
[1] = In vivo pharmacokinetics in male CD1 mice; design: species or system mouse; conditions: Table S6; for CLpu: plasma clearance corrected for the fraction unbound; for clearance / C0 / AUC / half-life / Vd / Cmax / Tmax / bioavailability: male, CD1, mouse, 0.5 mg/kg, mice; for clearance: plasma clearance, read-out: CLp (L/h/kg) IV (converted); for C0 / AUC / half-life / Vd / Cmax / Tmax / bioavailability: plasma; for Vd: read-out: VSS (L/kg) IV; for bioavailability: oral bioavailability
Method: The in vivo pharmacokinetic profiles of the compounds were determined using male CD1 mice weighing […] ([Davies and Morris, 1993]; [Liu and Jia, 2007]). The compounds were administered in a single dose orally (0.5 mg/kg) and intravenously (0.5 mg/kg). Stock solutions of the compounds in DMSO were diluted in Tween 80, PEG-400, and D5W (5% dextrose in water) at a ratio of 2:5:20:73 (v/v). The injection volume was 10 ml/kg. The remaining plasma concentration was monitored over time by LC-MS/MS by collecting blood samples (40 μl) at 10, 25, and 50 min and 1, 3, 6, 9, 12, and 24 h after administration of the compound.
For the biotransformation experiments and analysis of metabolites in microsomes, an Ultra-High-Pressure Liquid Chromatography instrument (UHPLC, Thermo Accela, Waltham, MA) ([Spaggiari et al., 2014]) connected to an automatic sample injector and a 1250 series pump was used. The UHPLC system was connected to a Thermo Fisher (Waltham, MA) LTQ Orbitrap mass spectrometer. For all other analyses, an AB Sciex Triple Quad 5500 coupled to a UHPLC equipped with a UV 1290 diode detector (Agilent Technologies, Santa Clara, CA) and a CTC PAL self-collecting system (LEAP Technologies, Carrboro, NC) was used. Q1 MS positive ion mode (300–500 Da) was used to detect the ions of the parent compounds. The UV detector was operated in spectral mode (250–280 nm). A Hypersil Gold C18 (2.1 mm × 100 mm, 1.9 µm, Thermo Fisher) HPLC column was used. The mobile phases were solvent A (0.1% formic acid in water) and solvent B (0.1% formic acid in ACN). The flow was adjusted to 0.55 ml/min, and the injection volume was adjusted to […]. The gradient started with 1% solvent B for 0.4 min, reached 40% (solvent B) in 2.3 min and 95% (solvent B) in 0.67 min, was maintained for 0.5 min, and returned to the initial condition of 1%. This condition was maintained for 1 min before injection of the next sample. The peak area ratio (peak area of the test compounds/peak area of the control compounds) was converted to the percentage of remaining compound, with the 0 min time point ratio set to 100%. T½ and CLint were calculated from the percentage of remaining compound versus the incubation time. From the resulting function, the slope (k) was determined. The equations T1/2 (min) = ln(2)/k and CLint in vitro (μL/min/mg) = k*1000/0.25 were used to determine T½ and CLint.

cruzain = molecular target: T1, cruzain (Trypanosoma cruzi, UniProt P25779); experiment: Cruzain enzyme inhibition assay (cleavage of fluorogenic substrate Z-FR-AMC); type: biochemical; conditions: for inhibition at 100 µM: compound 100 µM, mean of three measures; for Mechanism of cruzain inhibition (Lineweaver-Burk plots): eight substrate and four inhibitor concentrations; for % cruzain inhibition, 0% Triton / % cruzain inhibition, 0.01% Triton / % cruzain inhibition, 0.1% Triton: Table S1; for % cruzain inhibition, 0% Triton: 0% Triton X-100; for % cruzain inhibition, 0.01% Triton: 0.01% Triton X-100; for % cruzain inhibition, 0.1% Triton: 0.1% Triton X-100
T1 construct: made in house; host or cells: Escherichia coli (strain M15)
T1 sequence (P25779 123-337 limits assumed): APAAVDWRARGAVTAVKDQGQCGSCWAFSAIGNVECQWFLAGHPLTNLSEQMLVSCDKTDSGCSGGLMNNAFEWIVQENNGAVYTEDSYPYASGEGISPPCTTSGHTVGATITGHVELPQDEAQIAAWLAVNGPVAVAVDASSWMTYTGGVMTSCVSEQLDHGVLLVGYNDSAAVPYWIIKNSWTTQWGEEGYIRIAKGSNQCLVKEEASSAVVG
Procedure, shortened: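 Recombinant C-terminally truncated cruzain, activated from pro-enzyme, assayed in 0.1 M sodium acetate pH 5.5 with 5 mM DTT and 0.01% Triton X-100 (also run at 0 and 0.1%) at 30°C. Z-FR-AMC cleavage followed 5 min (ex 355/em 460 nm); IC50 from initial rates versus DMSO, ≥6 concentrations in triplicate; single-dose at 100 μM.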

[2] = IV, read-out: T1/2(h) IV (converted)
[3] = 1.5 nM cruzain, 5.0 µM Z-FR-AMC, mean ± SD of 2–3 assays, read-out: IC50 (µM) against cruzain
[4] = Table S2, substrate 2.5 µM, read-out: IC50 (µM) cruzain at [S] 2.5 µM
[5] = Table S2, substrate 5 µM, read-out: IC50 (µM) cruzain at [S] 5 µM
[6] = Table S2, substrate 10 µM, read-out: IC50 (µM) cruzain at [S] 10 µM
[7] = Table S2, substrate 15 µM, read-out: IC50 (µM) cruzain at [S] 15 µM
[8] = Table S2, substrate 20 µM, read-out: IC50 (µM) cruzain at [S] 20 µM
[9] = Table S2, substrate 40 µM, read-out: IC50 (µM) cruzain at [S] 40 µM
[10] = PO, read-out: T1/2 (h) PO (converted)

Row | SMILES | CLpu [1] | clearance ([1]; IV) | C0 ([1]; IV) | AUC ([1]; IV, read-out: AUC (ng*h/mL) IV) | half-life [1, 2] | Vd ([1]; IV) | IC50 (cruzain; [3]) | inhibition at 100 µM (cruzain) | further results
1 | O=C(COc1ccc2ccc(O)cc2c1)NCCc1nc2ccccc2[nH]1 [Compound 11] | 8011 mL/min/kg | 12.9 L/h/kg | 400 ng/mL | 77 ng·h/mL | 0.13 h | 1.92 L/kg | 2.7 ± 0.7 µM | 96% | –
2 | O=C(COc1ccccc1)NCCc1nc2ccccc2n1Cc1ccccc1 [Compound 26] | – | – | – | – | – | – | 1.1 ± 0.2 µM | 77% | IC50 (cruzain; [4]): 1.6 ± 0.1 µM; IC50 (cruzain; [5]): 1.8 ± 0.1 µM; IC50 (cruzain; [6]): 1.9 ± 0.2 µM; IC50 (cruzain; [7]): 1.4 ± 0.5 µM; IC50 (cruzain; [8]): 2.4 ± 0.9 µM; IC50 (cruzain; [9]): 1.2 ± 0.5 µM; Mechanism of cruzain inhibition (Lineweaver-Burk plots) (cruzain): noncompetitive
3 | O=C(COc1cccc(NC(=O)CCCO)c1)NCCc1nc2ccccc2[nH]1 [Compound 7] | – | – | – | – | – | – | – | 75% | –
4 | CC(=O)Nc1cccc(OCC(=O)NCCc2nc3ccccc3[nH]2)c1 [Compound 3] | 242.5 mL/min/kg | 2.31 L/h/kg | 12000 ng/mL | 916 ng·h/mL | 0.35 h | 0.45 L/kg | 28.1 ± 3.1 µM | 70% | Cmax ([1]; PO): 9 ng/mL; Tmax ([1]; PO): 26.4 min; AUC ([1]; PO, read-out: AUC (ng*h/mL) PO): 9.91 ng·h/mL; bioavailability [1]: 1%
5 | O=C(COc1cccc(N2C(=O)CCC2=O)c1)NCCc1nc2ccccc2[nH]1 [Compound 6] | – | – | – | – | – | – | – | 38% | –
6 | O=C(COc1ccccc1Br)NCCc1nc2ccccc2n1CCOc1ccccc1Br [Compound 23] | – | – | – | – | – | – | – | 49% | % cruzain inhibition, 0% Triton (cruzain): 52.1 ± 1.3%; % cruzain inhibition, 0.01% Triton (cruzain): 53.2 ± 1.9%; % cruzain inhibition, 0.1% Triton (cruzain): 55.5 ± 5.2%
7 | O=C(COc1ccccc1)NCCc1nc2ccccc2n1CCOCc1ccccc1 [Compound 21] | – | – | – | – | – | – | 1.69 ± 0.4 µM | 76% | % cruzain inhibition, 0% Triton (cruzain): 80.3 ± 1.4%; % cruzain inhibition, 0.01% Triton (cruzain): 85.5 ± 2.3%; % cruzain inhibition, 0.1% Triton (cruzain): 84.6 ± 1.3%
8 | O=C(COc1ccc(NC(=O)CCCO)cc1)NCCc1nc2ccccc2[nH]1 [Compound 5] | – | – | – | – | – | – | – | 87% | –
9 | O=C(COc1ccccc1)NCCc1nc2ccccc2[nH]1 [Compound 1] | 289.8 mL/min/kg | 4.01 L/h/kg | 988 ng/mL | 250 ng·h/mL | 0.21 h | 1.02 L/kg | 10.9 ± 1 µM | 90% | Cmax ([1]; PO): 21 ng/mL; Tmax ([1]; PO): 19.2 min; AUC ([1]; PO, read-out: AUC (ng*h/mL) PO): 22.5 ng·h/mL; half-life [1, 10]: 0.73 h; bioavailability [1]: 9%; Mechanism of cruzain inhibition (Lineweaver-Burk plots) (cruzain): competitive
10 | O=C(COc1ccc2cc(O)ccc2c1)NCCc1nc2ccccc2[nH]1 [Compound 10] | 314 mL/min/kg | 6.52 L/h/kg | 660 ng/mL | 156 ng·h/mL | 0.14 h | 1.21 L/kg | 3.4 ± 0.9 µM | 90% | bioavailability [1]: 0%
11 | CC(=O)Nc1ccc(OCC(=O)NCCc2nc3ccccc3[nH]2)cc1 [Compound 2] | 69.3 mL/min/kg | 2.03 L/h/kg | 1040 ng/mL | 506 ng·h/mL | 0.63 h | 1.03 L/kg | 4.5 ± 0.5 µM | 79% | Cmax ([1]; PO): 54 ng/mL; Tmax ([1]; PO): 49.8 min; AUC ([1]; PO, read-out: AUC (ng*h/mL) PO): 125 ng·h/mL; half-life [1, 10]: 1.21 h; bioavailability [1]: 25%
12 | Cc1ccccc1OCC(=O)NCCc1nc2ccccc2n1CCOc1ccccc1Br [Compound 22] | – | – | – | – | – | – | – | 36% | –
13 | O=C(COc1ccccc1)NCCc1nc2ccccc2n1CCCOc1ccccc1 [Compound 24] | – | – | – | – | – | – | 2.2 ± 1.2 µM | 81% | % cruzain inhibition, 0% Triton (cruzain): 87.9 ± 0.7%; % cruzain inhibition, 0.01% Triton (cruzain): 82.6 ± 0.3%; % cruzain inhibition, 0.1% Triton (cruzain): 82.9 ± 3.5%; IC50 (cruzain; [4]): 1.7 ± 1.3 µM; IC50 (cruzain; [5]): 2.2 ± 1.3 µM; IC50 (cruzain; [6]): 2.2 ± 1.1 µM; IC50 (cruzain; [7]): 1.9 ± 1.8 µM; IC50 (cruzain; [8]): 2.5 ± 1.2 µM; IC50 (cruzain; [9]): 2.1 ± 0.9 µM; Mechanism of cruzain inhibition (Lineweaver-Burk plots) (cruzain): noncompetitive
14 | O=C(COc1ccc(N2C(=O)CCC2=O)cc1)NCCc1nc2ccccc2[nH]1 [Compound 4] | – | – | – | – | – | – | – | 20% | –
15 | COc1ccc2cc(OCC(=O)NCCc3nc4ccccc4[nH]3)ccc2c1 [Compound 12] | – | – | – | – | – | – | 2.3 ± 0.6 µM | 100% | –
16 | COCCn1c(CCNC(=O)COc2ccccc2)nc2ccccc21 [Compound 29] | – | – | – | – | – | – | 8.8 ± 1.8 µM | 79% | –
17 | O=C(COc1cccc([N+](=O)[O-])c1)NCCc1nc2ccccc2[nH]1 [Compound 8] | 396.2 mL/min/kg | 3.31 L/h/kg | 925 ng/mL | 322 ng·h/mL | 0.21 h | 1.04 L/kg | 13.5 ± 2.6 µM | 83% | Cmax ([1]; PO): 61 ng/mL; Tmax ([1]; PO): 18.6 min; AUC ([1]; PO, read-out: AUC (ng*h/mL) PO): 44.6 ng·h/mL; half-life [1, 10]: 0.42 h; bioavailability [1]: 14%
18 | NC(=O)Cn1c(CCNC(=O)COc2ccccc2)nc2ccccc21 [Compound 28] | 66.3 mL/min/kg | 0.73 L/h/kg | 1930 ng/mL | 1420 ng·h/mL | 0.52 h | 0.43 L/kg | 12.1 ± 2.4 µM | 81% | Cmax ([1]; PO): 275 ng/mL; Tmax ([1]; PO): 30.6 min; AUC ([1]; PO, read-out: AUC (ng*h/mL) PO): 499 ng·h/mL; half-life [1, 10]: 0.82 h; bioavailability [1]: 35%
19 | O=C(COc1ccccc1)NCCc1nc2ccccc2n1CCOc1ccccc1Br [Compound 19] | – | – | – | – | – | – | – | 72% | % cruzain inhibition, 0% Triton (cruzain): 73.4 ± 2.5%; % cruzain inhibition, 0.01% Triton (cruzain): 72.1 ± 1.7%; % cruzain inhibition, 0.1% Triton (cruzain): 77.5 ± 2.2%
20 | O=C(COc1ccccc1)NCCc1nc2ccccc2n1CCOc1ccccc1 [Compound 20] | – | – | – | – | – | – | 1.04 ± 0.7 µM | 92% | % cruzain inhibition, 0% Triton (cruzain): 95.2 ± 0.6%; % cruzain inhibition, 0.01% Triton (cruzain): 95.9 ± 1.7%; % cruzain inhibition, 0.1% Triton (cruzain): 96.0 ± 1.1%; IC50 (cruzain; [4]): 0.5 ± 1.3 µM; IC50 (cruzain; [5]): 0.4 ± 1.2 µM; IC50 (cruzain; [6]): 1 ± 1.5 µM; IC50 (cruzain; [7]): 0.8 ± 1.7 µM; IC50 (cruzain; [8]): 0.3 µM; IC50 (cruzain; [9]): 0.5 ± 1.2 µM; Mechanism of cruzain inhibition (Lineweaver-Burk plots) (cruzain): noncompetitive
21 | Nc1cccc(OCC(=O)NCCc2nc3ccccc3[nH]2)c1 [Compound 9] | – | – | – | – | – | – | 18.2 ± 1.8 µM | 90% | –
22 | C=CCCn1c(CCNC(=O)COc2ccccc2)nc2ccccc21 [Compound 27] | – | – | – | – | – | – | 13.7 ± 1.4 µM | 79% | IC50 (cruzain; [4]): 12.4 ± 2.2 µM; IC50 (cruzain; [5]): 7.5 ± 1.2 µM; IC50 (cruzain; [6]): 14.7 ± 1.8 µM; IC50 (cruzain; [7]): 11.2 ± 1.5 µM; IC50 (cruzain; [8]): 10.2 ± 1.5 µM; IC50 (cruzain; [9]): 8.9 ± 3.1 µM; Mechanism of cruzain inhibition (Lineweaver-Burk plots) (cruzain): noncompetitive
